Laboratory results reported in patent US20260055118A1, “VISIBLE LIGHT SENSITIVE PHOTOREMOVABLE PROTECTING GROUPS, PREPARATION PROCESS THEREOF, PHOTOACTIVATABLE CONJUGATES COMPRISING THEM AND USES THEREOF” (HUN-REN TERMÉSZETTUDOMÁNYI KUTATÓKÖZPONT, priority 2022, published 2026).

Key:
SK-OV-3 cells = assay: Cytotoxicity determination, MTT assay, with light irradiation and in the dark; format: cell-based, human; settings: for cell viability: DARK
Description: A viability test was carried out to assess the toxicity of SN38 as well as the photoremovable protecting group-SN38 conjugates X1′-SN38 and X2′-SN38 after light irradiation and in the dark on SKOV3 cells. Cells were transferred into a 48-well plate (Thermo Fisher Scientific, 130187) (4,500 cells/well) and incubated for 20-24 h at 37° C. in a 5% CO2 atmosphere in McCoy's 5A (Modified) Medium, HEPES (Gibco 22330021) supplemented with 10% FBS (Gibco 10500-064), 1% penicillin-streptomycin (Gibco 15140-122). Cells were treated with compounds in the concentration range of 10^−11-10^−4 M for 90 min followed by light irradiation or kept in the dark at 37° C. in 5% CO2 atmosphere. After treatment and irradiation, cells were kept at 37° C. in 5% CO2 atmosphere for 72 hours. After the incubation period, supernatants were replaced with 0.5 mg/ml MTT (3-(4,5-dimethylthiazol-2-yl)-2,5-diphenyltetrazolium bromide; Sigma M5655-1G) solution (in complete DMEM: Dulbecco's modified Eagle's medium (DMEM, Gibco 41965-039), supplemented with 10% FBS (Gibco 10500-064), 1% penicillin-streptomycin (Gibco 15140-122), 1% Glutamax (Gibco 35050-061) and 1% sodium pyruvate (Life Technologies, Gibco 11360-070)) and incubated for 120 min at 37° C. in the dark. The insoluble formazan crystals were dissolved in 250 μl DMSO. Absorbance was detected at 540 nm using a Biotek Synergy 2 Cytation 3 imaging plate reader with Gen5 software version 3.08 (Biotek Winooski, VT, USA). Viability was expressed as percentage (n=3) of the readings of untreated control cells.
To determine phototoxic properties of compounds X1′-SN38 and X2′-SN38, standard MTT assays were performed on SK—OV-3 cells. To irradiate multiple specimens, an LED panel was custom-made for a 48-well plate consisting of 24 LEDs using green (4 W input power, λmax=549 nm half-width: 16 nm, output power: 72 mW), orange (4 W input power, λmax=605 nm half-width: 10 nm, output power: 140 mW) and red (4 W input power, λmax=658 nm half-width: 10 nm, for Q=CMe2 output power: 210 mW) LED irradiation. The board was specifically designed for the plates and offer water cooling to minimize heat shock to cells. Every second well can be irradiated with an individual LED. First, the cytotoxicity of the free active agent, SN38 was determined to be EC50 ^˜6 nM. Treatment of cells with the photoactivatable SN38 derivatives for 72 hours in the absence of light (without washing) produced moderate cytotoxic effects, sigificantly lowering the effectiveness of the active agent. This confirms that SN38 is a suitable candidate for light-activated prodrug applications. […] Reducing the irradiation time down to 10 s still produced significant phototoxicity in higher concentrations (see FIG. 8a for compound X2′-SN38) even assuming incomplete uncaging as a result of the substantial dark stability of compound X2′-SN38.

[1] = Spectroscopic properties of the target conjugates in PBS; format: physicochemical; settings: for ε (molar absorption coefficient): at the absorption maximum
Description: All starting materials were obtained from commercial suppliers and used without further purification. Analytical thin-layer chromatography (TLC) was performed on silica gel 60 F254 precoated aluminum TLC plates from Merck. Flash column chromatography was performed on Teledyne Isco CombiFlash® Rf+ automated flash chromatographer with silica gel (25-40 μm) from Zeochem. NMR spectra were recorded on a Varian Inova 500 MHz spectrometer. Chemical shifts (δ) are given in parts per million (ppm) using solvent signals or TMS as the reference. Coupling constants (J) are reported in Hertz (Hz). Analytical RP-HPLC-UV/Vis-MS measurements were employed using a Shimadzu LCMS-2020 instrument applying a Gemini C18 column (100×2.00 mm I.D.) in which the stationary phase is […] with a pore size of 110 Å. The chromatograms were detected by a UV-Vis diode array (190-800 nm) and an ESI-MS detector. The following linear gradient elution profile was applied, 0 min 0% B; 6.5 min 100% B; 7 min 0% B; 8 min. 0% B) with eluent A (2% HCOOH, 5% MeCN and 93% water) and B (2% HCOOH, 80% MeCN and 18% water) at a flow rate of 1.0 mL min-1 at 30° C. The samples were dissolved in MeCN—water mixtures. Spectroscopic measurements were performed on a Jasco FP 8300 spectrofluorometer. Quartz cuvettes with path length of 1 cm were used.
The spectroscopic properties of the target conjugates were determined in PBS. […] Compounds with Q=O have absorption bands in the green-yellow region while Q=CMe2 derivatives absorb in the red (up to 700 nm). All of the compounds have moderate to high absorption coefficients and significant fluorescence. The spectroscopic details can be found in Table 1. In the table, λmax means absorption maximum; λem means fluorescence emission maximum; s means molar absorption coefficient (at the absorption maximum).

[2] = Uncaging quantum yield determination relative to BODIPY reference; format: physicochemical; settings: for ε × Φu, uncaging cross-section / quantum efficiency: at the wavelength in parentheses beside each value (538-660 nm); for Φu, uncaging quantum yield: calculated from active agent release; for Φu, uncaging quantum yield / Φdeg, degradation quantum yield: green light irradiation; for Φdeg, degradation quantum yield: calculated from the disappearance of the target conjugate
Description: The relative photochemical quantum yields of the uncaging reactions together with the degradation quantum yields were determined from the results of the quantitative HPLC-UV experiments. In all cases, green light irradiation was used since all target conjugates absorbed in this range as well as the reference BODIPY. The photochemical quantum yields were determined using the following equation:
[formula] • where • Φu is the photochemical quantum yield of the sample • Φu,ref is the photochemical quantum yield of the reference • k is the obtained reaction rate constant of the photoreaction of the sample • kref is the obtained reaction rate constant of the photoreaction of the reference • c is the concentration of the sample • cref is the concentration of the reference • V is the volume of the sample • Vref is the volume of the reference • a is the absorption correction factor of the sample • aref is the absorption correction factor of the reference
The absorption correction factors (a) were determined from the molar absorption coefficients and the green LED emission data obtained by the fluorimeter. […] In other words, the transmittance at each wavelength together with the emission data of the light source can be used to calculate the percentage of absorbed photons according to the following equation:
[formula] • where • T(λ) is the transmittance at each wavelength (determined from the molar absorption coefficients) • F(λ) is the LED emission at each wavelength • λmin, λmax is the LED emission range.
The rate constants of the photoreactions were determined by considering the reactions monoexponential with an initial linear phase (up to 10-20% degradation). First, the concentration vs. HPLC-UV peak were determined for each cargo moieties. […] The rate constants were determined for both the reference (with known Φu) and the sample. For reference, a commonly known BODIPY derivative was used with a similar phenylacetic acid-derived cargo unit (substrate 7 from REF^40), Φu=0.15%:
The calculated photochemical quantum yields together with uncaging cross-sections or quantum efficiencies (product of the molar absorption coefficient at a given wavelength, shown in parentheses and the photochemical quantum yield) are shown in Table 2. In the table, Φu is the photochemical quantum yield of the release; Φdeg is the photochemical quantum yield of degradation; ε×Φu is the uncaging cross-section or quantum efficiency of the release at a given wavelength in parentheses.

Molecule `CCc1c2c(nc3ccc(O)cc13)-c1cc3c(c(=O)n1C2)COC(=O)[C@]3(O)CC` [SN38, 7-ethyl-10-hydroxycamptothecin, reference compound] has a cell viability (SK-OV-3 cells; 50 nM) of 29%, a cell viability (SK-OV-3 cells; 100 nM) of 27% and a cell viability (SK-OV-3 cells; 200 nM) of 30%. For the same molecule, the EC50 (SK-OV-3 cells; dark, 72 h, MTT, read-out: Dark EC50 values) was 6.2 nM.

With `CC(OC(=O)N1CCN(c2ccccc2)CC1)C1=C2C=CC(=[N+]3CCCC3)C=C2C(C)(C)c2cc(N3CCCC3)ccc21` (stereo not shown) [Compound 49, 1-(9,9-dimethyl-10-(1-((4-phenylpiperazine-1-carbonyl)oxy)ethyl)-7-(pyrrolidin-1-yl)anthracen-2 (9H)-ylidene)pyrrolidin-1-ium] the “λem (fluorescence emission maximum)” value [1] was 673 nm, the “λmax (absorption maximum)” value [1] was 637 nm and the “ε (molar absorption coefficient)” value [1] was 75 100 M^−1cm^−1. The “ε × Φu, uncaging cross-section / quantum efficiency” value [2] was 690 M⁻¹ cm⁻¹, the “Φu, uncaging quantum yield” value [2] was 0.92% and the “Φdeg, degradation quantum yield” value [2] was 1.7%.

For `CC[N+]1=c2cc3c(cc2C(C)CC1(C)C)=C(C(C)OC(=O)Cc1ccccc1)c1cc2c4c(c1C3(C)C)CCCN4CCC2` (stereo not shown) [Compound 45], the “λem (fluorescence emission maximum)” value [1] was 680 nm, the “λmax (absorption maximum)” value [1] was 660 nm and the “ε (molar absorption coefficient)” value [1] was 83 800 M^−1cm^−1. The “ε × Φu, uncaging cross-section / quantum efficiency” value [2] was 1390 M⁻¹ cm⁻¹, the “Φu, uncaging quantum yield” value [2] was 1.6% and the “Φdeg, degradation quantum yield” value [2] was 2.6%.

In the case of `CC(OCc1ccccc1)C1=C2C=CC(=[N+]3CCCC3)C=C2C(C)(C)c2cc(N3CCCC3)ccc21.[I-]` (stereo not shown) [Compound 35, 1-(10-(1-(benzyloxy)ethyl)-9,9-dimethyl-7-(pyrrolidin-1-yl)anthracen-2 (9H)-ylidene)pyrrolidin-1-ium iodide], the “λem (fluorescence emission maximum)” value [1] is reported as 659 nm, the “λmax (absorption maximum)” value [1] is reported as 635 nm and the “ε (molar absorption coefficient)” value [1] is reported as 81 200 M^−1cm^−1.
